Patent US5092876A, “Cell attachment peptides derived from amyloid P component” (The United States of America as represented by the …, priority 1989, dated 1992)

Test system: cells
Experiment: Cell attachment assay, peptides/proteins from amyloid P component coated on plates (Table I)
Assay type: cell-based
Conditions: plates coated with peptide/protein (20 uM); average ± SEM
Experimental: All cell types used were obtained from American Type Culture Collection, Rockville, Md. and were maintained in Dulbecco's modified Eagle's medium (DMEM) supplemented with 10% fetal calf serum (FCS). The cells were grown to approximately 80% confluency in Falcon T75 flasks. For cell attachment assays, cells were washed with PBS (pH 7.4), and then detached from the tissue culture flasks with 0.025% trypsin, 0.025% EDTA.
The cells were sedimented by low speed centrifugation, suspended in serum-free Eagle's minimal essential medium (EMEM) containing 0.05% BSA and used immediately in the cell attachment assays.
Cell attachment was assayed as described by Graf et al., Biochemistry 26, 6896-6900 (1987). 24 well plastic culture plates (Linbro, Flow Laboratories, Inc., Va.) were coated with the desired peptides at 25° C. for 16 h in 0.1M bicarbonate buffer, pH 9.6. Exposed non-specific cell attachment sites were blocked by coating the wells with 3% BSA for 1 h at 25° C. Cells, (1.1×10^5), prepared as described above, were added to each well and incubated at 37° C. for 1 h in a humidified incubator with 5% CO2 --95% air mixture. At the end of incubation, plates were gently washed twice with PBS to remove unattached cells. Attached cells were treated with trypsin and electronically counted. […] Each peptide was tested for cell attachment in six separate experiments.
Tissue culture plates (obtained from Linbro, Flow Laboratories, Inc., Va.) were coated with peptides or proteins at […]. Before coating (a) AP was denatured with 6M Guanidine HCl (GnHCl) for 2 h at 4° C. GnHCl was removed by extensive dialysis against 0.1M bicarbonate buffer, pH 9.6 at 4° C.; (b) AP was heat-denatured at 100° C. for 15 min.; (c) native AP was reduced and the free sulfhydryl groups were blocked by carboxymethylation, and (d) heat-denatured AP was treated as in (c). The values are expressed as the average ± SEM, and are reported hereinbelow in Table I.

Substance | No. attached cells
GnHCl-Denatured SAP (a): AP denatured with 6M Guanidine HCl for 2 h at 4° C., GnHCl removed by dialysis | 3835 ± 424
Heat-Denatured SAP (b): AP heat-denatured at 100° C. for 15 min. | 3926 ± 552
Native SAP: Amyloid P component isolated from normal human serum, 125 kDa glycoprotein | 3125 ± 348
Reduced (heat-denatured SAP)/carboxymethylated (d): heat-denatured AP reduced and carboxymethylated as in (c) | 3436 ± 396
Reduced (native)/carboxy-methylated (c): native AP reduced and the free sulfhydryl groups blocked by carboxymethylation | 2558 ± 428
